These results are taken from patent US8933074B2, “1,2-disubstituted heterocyclic compounds” (FORUM Pharmaceuticals Inc., priority 2008, dated 2015).

Molecules are shown by their SMILES.

Chain of Human PDE10A1 (Q9Y233 1-779 isoform Q9Y233-1): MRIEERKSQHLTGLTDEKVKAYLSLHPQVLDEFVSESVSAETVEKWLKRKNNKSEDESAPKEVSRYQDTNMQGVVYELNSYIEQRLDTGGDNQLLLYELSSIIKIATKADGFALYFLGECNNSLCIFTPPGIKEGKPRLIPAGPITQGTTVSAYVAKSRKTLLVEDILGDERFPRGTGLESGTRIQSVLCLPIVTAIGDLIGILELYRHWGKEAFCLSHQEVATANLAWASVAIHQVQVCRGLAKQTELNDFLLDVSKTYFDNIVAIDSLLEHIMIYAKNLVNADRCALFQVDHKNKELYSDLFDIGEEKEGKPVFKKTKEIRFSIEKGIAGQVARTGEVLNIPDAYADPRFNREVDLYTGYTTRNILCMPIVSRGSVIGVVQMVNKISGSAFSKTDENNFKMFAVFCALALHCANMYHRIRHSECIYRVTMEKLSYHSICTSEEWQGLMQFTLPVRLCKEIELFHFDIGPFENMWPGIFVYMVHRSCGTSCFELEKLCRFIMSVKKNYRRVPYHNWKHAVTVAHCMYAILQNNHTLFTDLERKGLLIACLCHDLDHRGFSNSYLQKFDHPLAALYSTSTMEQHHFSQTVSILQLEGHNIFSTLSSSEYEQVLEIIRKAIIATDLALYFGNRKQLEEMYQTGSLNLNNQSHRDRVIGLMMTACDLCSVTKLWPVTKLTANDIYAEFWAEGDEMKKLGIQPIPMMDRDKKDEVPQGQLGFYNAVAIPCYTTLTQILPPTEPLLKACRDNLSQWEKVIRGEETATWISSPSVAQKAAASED

The experiment addresses Human PDE10A1 (Homo sapiens, UniProt Q9Y233). The experiment in a line: hPDE10A1 enzyme inhibition. The following applies: [3H]-cAMP substrate, 20 minutes at 37° C.; read-out: hPDE10A1 IC50 Band. In kind it is biochemical. How it is done:
50 μl samples of serially diluted Human PDE10A1 enzyme were incubated with 50 μl of [^3H]-cAMP for 20 minutes (at 37° C.). Reactions were carried out in Greiner 96 deep well 1 ml master-block. The enzyme was diluted in 20 mM Tris HCl pH7.4 and [^3H]-cAMP was diluted in 10 mM MgCl2, 40 mM Tris.HCl pH 7.4. The reaction was terminated by denaturing the PDE enzyme (at 70° C.) after which [^3H]-5′-AMP was converted to [^3H]-adenosine by adding 25 μl snake venom nucleotidase and incubating for 10 minutes (at 37° C.). Adenosine, being neutral, was separated from charged cAMP or AMP by the addition of 200 μl Dowex resin. Samples were shaken for 20 minutes then centrifuged for 3 minutes at 2,500 r.p.m. 50 μl of supernatant was removed and added to 200 μl of MicroScint-20 in white plates (Greiner 96-well Optiplate) and shaken for 30 minutes before reading on Perkin Elmer TopCount Scintillation Counter.
To check inhibition profile 11 μl of serially diluted inhibitor was added to 50 μl of [^3H]-cAMP and 50 ul of diluted Human PDE10A1 and assay was carried out as in the enzyme activity assay. Data was analysed using Prism software (GraphPad Inc).
As to `CN1C(=O)C(c2ccncc2)=C(c2ccc(OCc3ccc4ccccc4n3)cc2)C1=O` [Example 11, 1-methyl-3-(pyridin-4-yl)-4-(4-(quinolin-2-ylmethoxy)phenyl)-1H-pyrrole-2,5-dione], the IC50 (as a rule, the concentration that gives 50% inhibition) is over 0.05 µM. Regarding `COc1cc(C2=C(c3ccc(OCc4ccc5ccccc5n4)cc3)C(=O)C(C)(C)O2)ccn1` [Example 131, 5-(2-methoxypyridin-4-yl)-2,2-dimethyl-4-(4-(quinolin-2-ylmethoxy)phenyl)furan-3(2H)-one], the IC50 was at most 0.05 µM. `COc1ccc(C2=C(c3ccc(OCc4ccc5ccccc5n4)cc3)C(=O)C(C)(C)O2)cc1` [Example 138, 5-(4-Methoxyphenyl)-2,2-dimethyl-4-(4-(quinolin-2-ylmethoxy)phenyl) furan-3(2H)-one]: the IC50 is at most 0.05 µM. On to `CC1(C)OC(c2ccnc(O)c2)=C(c2ccc(OCc3ccc4ccccc4n3)cc2)C1=O` [Example 130, 5-(2-hydroxypyridin-4-yl)-2,2-dimethyl-4-(4-(quinolin-2-ylmethoxy)phenyl)furan-3(2H)-one], for which the IC50 is at most 0.05 µM.

Turning to `CC(=O)N(C(C)=O)c1ccc(C2=C(c3ccc(OCc4ccc5ccccc5n4)cc3)C(=O)C(C)(C)O2)cc1` [Example 819, N-acetyl-N-(4-(5,5-dimethyl-4-oxo-3-(4-(quinolin-2-ylmethoxy)phenyl)-4,5-dihydrofuran-2-yl)phenyl)acetamide], the IC50 is at most 0.05 µM.

As to `COc1ccc(C2=C(c3ccc(OCc4ccc5ccccc5n4)cc3)C(=O)C(C)(C)O2)cc1C#N` [Example 137, 5-(5,5-Dimethyl-4-oxo-3-(4-(quinolin-2-ylmethoxy)phenyl)-4,5-dihydrofuran-2-yl)-2-methoxybenzonitrile], the IC50 was at most 0.05 µM. As for `CC1(C)OC(c2ccncc2)=C(c2ccc(OCc3ccc4cc(F)ccc4n3)cc2)C1=O` [Example 810, 4-(4-((6-Fluoroquinolin-2-yl)methoxy)phenyl)-2,2-dimethyl-5-(pyridin-4-yl) furan-3(2H)-one], the IC50 is at most 0.05 µM.

For the compound `CC1(C)OC(=O)C(c2ccc(OCc3ccc4ccccc4n3)cc2)=C1c1ccncc1` [Example 23, 5,5-dimethyl-4-(pyridin-4-yl)-3-(4-(quinolin-2-ylmethoxy)phenyl)furan-2(5H)-one], the IC50 was at most 0.05 µM. The value for `CN1C(=O)C(c2ccc(OCc3ccc4ccccc4n3)cc2)=C(N2CCC(=O)CC2)C1=O` [Example 820, 1-Methyl-3-(4-oxopiperidin-1-yl)-4-(4-(quinolin-2-ylmethoxy)phenyl)-1H-pyrrole-2,5-dione] was over 0.05 µM.

Turning to `CC1(C)OC(c2ccc(O)cc2)=C(c2ccc(OCc3ccc4ccccc4n3)cc2)C1=O` [Example 813, 5-(4-hydroxyphenyl)-2,2-dimethyl-4-(4-(quinolin-2-ylmethoxy)phenyl)furan-3(2H)-one], the half-inhibitory concentration (IC50) is at most 0.05 µM. Regarding `CC1(C)OC(c2cscn2)=C(c2ccc(OCc3ccc4ccccc4n3)cc2)C1=O` [Example 174, 2,2-dimethyl-4-(4-(quinolin-2-ylmethoxy)phenyl)-5-(thiazol-4-yl)furan-3(2H)-one], the IC50 is at most 0.05 µM. Regarding `O=C1C(c2ccc(OCc3ccc4ccccc4n3)cc2)=C(c2ccncc2)OC12CCCC2` [Example 824, 2-(pyridin-4-yl)-3-(4-(quinolin-2-ylmethoxy)phenyl)-1-oxaspiro[4.4]non-2-en-4-one], the IC50 is at most 0.05 µM. Regarding `CC1(C)OC(c2ccc(O)nc2)=C(c2ccc(OCc3ccc4ccccc4n3)cc2)C1=O` [Example 132, 5-(6-hydroxypyridin-3-yl)-2,2-dimethyl-4-(4-(quinolin-2-ylmethoxy)phenyl)furan-3(2H)-one], the IC50 is at most 0.05 µM.

On to `CC1(C)OC(c2ccc(OC(F)(F)F)cc2)=C(c2ccc(OCc3ccc4ccccc4n3)cc2)C1=O` [Example 155, 2,2-dimethyl-4-(4-(quinolin-2-ylmethoxy)phenyl)-5-(4-(trifluoromethoxy)phenyl)furan-3(2H)-one], for which the IC50 is at most 0.05 µM.
